Where a name gives a salt, the structure may show the parent alone.

One test addresses human αvβ3 receptor (Homo sapiens, UniProt P05106+P06756). In words: Bond displacement / binding competition test: Vitronectin/Vitronectin Receptor (αvβ3), plate assay. As to conditions: human vitronectin coated plates, 3 hours at ambient temperature, read-out: Binding competition test Vn/VR (αvβ3) IC50. On the procedure: Pharmacological Study of the Products of the Invention 1--Study by the Products of the Invention of the Bond Displacement: Vitronectin/Vitronectin Receptor (αvβ3) 96-well MaxiSorp plates are coated overnight at 4° C., with 100 μl of human Vitronectin (cf Yatohgo et al. Cell., Structure and fraction 13: 281-292 (1988)) at 2 μg/ml, (Dilution in coating buffer).
The next day, the wells are emptied and the ligands (Vitronectin) are then fixed (see fixation buffer) for 1 hour at ambient temperature under gentle agitation.
The wells are washed six times (see washing buffer), then the following are added per well and in this order:
40 μl of incubation buffer, 10 μl of the dilution of the product to be tested, (the products are diluted in a 50/50 mixture of DMSO-H2 O) 50 μl of human αvβ 3 receptor (cf Pytela et al. Methods Enzymol (1987) 144:475) (dilution in incubation buffer, adapted according to the batch of receptor and according to the ligand).
The ligand, the human αvβ3 receptor and the products to be studied are incubated for 3 hours at ambient temperature under gentle agitation.
The wells are again washed six times, then incubated for 2 hours at ambient temperature under gentle agitation, in the presence of 100 μl of 4B12-HRP antibody, anti-receptor coupled to a peroxidase (the 4B12-HRP antibody is diluted in incubation buffer. The dilution is adapted according to the batch of receptor).
The wells are then washed six times before measurement of ligand-receptor bond is carried out using a peroxidase developer kit (TMB Microwell Peroxidase Substrate System Kirkegaard: Ref. cat. 50-76-00).
This kit contains a flask A of substrate (3,3', 5,5'-tetramethylbenzidine at 0.4 g/l) and a flask B (H2 O2 at 0.02% in Citrate/Citric acid buffer). Extemporaneously, one volume of A is mixed with one volume of B, then the reaction mixture is distributed at the rate of 100 µl/well. The enzymatic reaction develops in 12' for Vitronectin/αvβ3, then its development is stopped by the addition of 100 μl of 1M phosphoric acid.
The optical density is measured at 450 nm. […]
coating buffer: 0.05 M Carbonate, NaOH pH 9.6 fixation buffer: PBS containing 0.5% of BSA (pH 7.4) washing buffer: PBS containing 0.05% of Tween 20 (pH 7.4)
The following curve is plotted: the percentage of bond of human vitronectin as a function of the logarithm of the concentration of each product tested.
For each product the IC50 is determined according to the following formula:
BO=Maximum bond in the absence of any product
Bmin=Minimum bond in the presence of the highest concentration of product.

Test [1] concerns bone resorption. The note with it: in vivo in the rat, Fisher et al.; cited from earlier work.
Test [2] has as its system bone resorption. The note with it: Sato et al.; cited from earlier work.
The subject of another test is osteoclasts. As to conditions: cited from earlier work.

As for `COc1c(SCCC(NC(=O)OCc2ccccc2)C(=O)O)cc2c(c1OC)C1=C(CCC1)C(=NNC1=NCCN1)CC2` (racemic) [Example 1, S-[4-[(4,5-dihydro-1H-imidazol-2-yl)hydrazono]-9,10-dimethoxy-1,2,3,4,5,6-hexahydro-8-benz[e]azulenyl]-N-[(phenylmethoxy)carbonyl]-DL-homocysteine], the IC50 at human αvβ3 receptor was 40 nM.

As for `O=C(NC(CCSc1ccc2c(c1)CCC(=NN=C1NCCN1)C1=C2CCC1)C(=O)O)OCc1ccccc1` (racemic) [Example 4, S-[4-[(2-imidazolidinylidene)hydrazono]-1,2,3,4,5,6-hexahydro-8-benz[e]azulenyl]-N-[(phenylmethoxy)carbonyl]-DL-homocysteine], the IC50 at human αvβ3 receptor came to 30 nM.

With `O=C(NC(CCS(=O)(=O)c1ccc2c(c1)CCC(=NNC1=NCCN1)C1=C2CCC1)C(=O)O)OCc1ccccc1` (stereo not shown) [Example 5, hydrochloride of 4-[[4-[(2-imidazoli-dinylidene)hydrazono]-1,2,3,4,5,6-hexahydro-8-benz[e]azulenyl]sulphonyl]-2-[[(phenylmethoxy)carbonyl]amino]-butanoic acid], the IC50 on human αvβ3 receptor turned out to be 33 nM.

`O=C(NC(CC[S+]([O-])c1ccc2c(c1)CCC(=NN=C1NCCN1)C1=C2CCC1)C(=O)O)OCc1ccccc1` (stereo not shown) [Example 6, 4-[[4-[(2-imidazolidinylidene)hydrazono]-1,2,3,4,5,6-hexahydro-8-benz[e]azulenyl]sulphinyl]-2-[[(phenylmethoxy)carbonyl]amino]-butanoic acid]: the IC50 on human αvβ3 receptor was 230 nM.

With Echistatin, the “inhibition of bone resorption in vivo” value in the test on bone resorption [1] was “powerful inhibitor of bone resorption”. Moreover, in the test on bone resorption [2], the “inhibition of bone resorption in tissues cultured in vitro” value is given as “powerful inhibitor of bone resorption”. In addition, the “inhibition of the adhesion of the osteoclasts to bone” value in the test on osteoclasts is given as “inhibitor of the adhesion of the osteoclasts to bone”.

The record behind these values is US6277845A, “Hydrazono-benzazulene derivatives, pharmaceutical compositions and intermediates” (Aventis Pharma S.A., priority 1997, dated 2001).
